Test results: ChEMBL document CHEMBL4406882, “The plant-derived chalcone Xanthoangelol targets the membrane of Gram-positive bacteria” (Bioorg Med Chem, 2019)
Converted amounts (≈) assume the structure as drawn. The source made the active and inactive calls. The rule behind the calls is not given here.

Experiments:
[1] = tested on: Staphylococcus aureus; test: Antibacterial activity against Staphylococcus aureus ATCC 25923 by broth micro dilution method; assay type: functional
[2] = tested on: Staphylococcus aureus; test: Antibacterial activity against methicillin-resistant Staphylococcus aureus ATCC 700699 by broth micro dilution method; assay type: functional
[3] = tested on: Enterococcus faecalis; test: Antibacterial activity against Enterococcus faecalis ATCC 29212 by broth micro dilution method; assay type: functional
[4] = tested on: Enterococcus faecalis; test: Antibacterial activity against vancomycin-resistant Enterococcus faecalis ATCC 51299 by broth micro dilution method; assay type: functional
[5] = tested on: Enterococcus faecalis; test: Antibacterial activity against Enterococcus faecalis ATCC 35667 by broth micro dilution method; assay type: functional
[6] = tested on: Enterococcus faecalis; test: Antibacterial activity against vancomycin-resistant Enterococcus faecalis ATCC 700221 by broth micro dilution method; assay type: functional
[7] = tested on: Bacillus subtilis; test: Antibacterial activity against Bacillus subtilis 168 by broth micro dilution method; assay type: functional
[8] = tested on: Acinetobacter baumannii; test: Antibacterial activity against Acinetobacter baumannii ATCC BAA-747 by broth micro dilution method; assay type: functional
[9] = tested on: Acinetobacter baumannii; test: Antibacterial activity against multidrug-resistant Acinetobacter baumannii ATCC BAA-1605 by broth micro dilution method; assay type: functional
[10] = tested on: Pseudomonas aeruginosa; test: Antibacterial activity against Pseudomonas aeruginosa ATCC 27853 by broth micro dilution method; assay type: functional
[11] = tested on: Staphylococcus aureus; test: Antibacterial activity against methicillin-resistant Staphylococcus aureus ATCC 700699 assessed as delay in growth at 1.56 uM measured for 6 hrs; assay type: functional, organism-based
[12] = tested on: Staphylococcus aureus; test: Antibacterial activity against methicillin-resistant Staphylococcus aureus ATCC 700699 assessed as delay in growth at 6.25 uM measured for 24 hrs relative to control; assay type: functional
[13] = tested on: Staphylococcus aureus; test: Antibacterial activity against mid-exponential growth phase of methicillin-resistant Staphylococcus aureus ATCC 700699 assessed as increase in cell lysis at 12.5 to 25 uM; assay type: functional, organism-based
[14] = tested on: Staphylococcus aureus; test: Bactericidal activity against methicillin-resistant Staphylococcus aureus ATCC 700699 assessed as reduction in bacterial CFU at 4 times MIC measured for 30 mins; assay type: functional
[15] = (§1) Cytotoxicity against human THP1 cells assessed as reduction in cell viability incubated for 48 hrs by resazurin reagent based assay; parameters: species or system THP-1; settings: human, THP1 cells
[16] = tested on: THP-1; test: as §1; settings: Homo sapiens, THP-1, 48 h
[17] = (§2) Cytotoxicity against human MRC5 cells assessed as reduction in cell viability incubated for 48 hrs by resazurin reagent based assay; settings: human, MRC5 cells
[18] = tested on: MRC5; test: as §2; settings: Homo sapiens, MRC5, 48 h
[19] = (§3) Cytotoxicity against human HEK293 cells assessed as reduction in cell viability incubated for 48 hrs by resazurin reagent based assay; settings: human, HEK293 cells
[20] = tested on: HEK293; test: as §3; settings: Homo sapiens, HEK293, 48 h
[21] = (§4) Cytotoxicity against human HepG2 cells assessed as reduction in cell viability incubated for 48 hrs by resazurin reagent based assay; settings: human, HepG2 cells
[22] = tested on: HepG2; test: as §4; settings: Homo sapiens, HepG2, 48 h
[23] = Cytotoxicity against human CLS54 cells assessed as reduction in cell viability incubated for 48 hrs by resazurin reagent based assay
[24] = Selectivity index, ratio of IC50 for human THP1 cells to MIC90 for methicillin-resistant Staphylococcus aureus ATCC 700699; assay type: toxicity; settings: read-out: Selectivity Index
[25] = Selectivity index, ratio of IC50 for human MRC5 cells to MIC90 for methicillin-resistant Staphylococcus aureus ATCC 700699; assay type: toxicity; settings: read-out: Selectivity Index
[26] = Selectivity index, ratio of IC50 for human HEK293 cells to MIC90 for methicillin-resistant Staphylococcus aureus ATCC 700699; assay type: toxicity; settings: read-out: Selectivity Index
[27] = Selectivity index, ratio of IC50 for human HepG2 cells to MIC90 for methicillin-resistant Staphylococcus aureus ATCC 700699; assay type: toxicity; settings: read-out: Selectivity Index
[28] = Selectivity index, ratio of IC50 for human CLS54 cells to MIC90 for methicillin-resistant Staphylococcus aureus ATCC 700699; assay type: toxicity; settings: read-out: Selectivity Index
[29] = tested on: Staphylococcus aureus; test: Induction of membrane integrity impairment in methicillin-resistant Staphylococcus aureus ATCC 700699 at 0.5 to 4 times MIC measured for 30 mins by DiOC2(3) probe based fluorescence assay; assay type: functional, organism-based
[30] = tested on: Staphylococcus aureus; test: Induction of membrane integrity impairment in methicillin resistant Staphylococcus aureus Mu50 assessed as increase in release of ATP at 1 to 16 times MIC incubated for 1 hr by BacTiter-Glo Assay; assay type: functional, organism-based
[31] = tested on: Staphylococcus aureus; test: Induction of membrane integrity impairment in methicillin resistant Staphylococcus aureus Mu50 harboring GFP reporter plasmid assessed as increase in release of GFP at 1 to 16 times MIC incubated for 3 to 6 hrs by […]; assay type: functional, organism-based
[32] = tested on: Staphylococcus aureus; test: Induction of membrane integrity impairment in methicillin-resistant Staphylococcus aureus ATCC 700699 at 12.5 to 25 uM measured for 3 hrs by PI staining based fluorescence assay; assay type: functional, organism-based
[33] = tested on: Erythrocyte; test: Hemolytic activity against human erythrocytes at =>100 uM measured up to 24 hrs; assay type: ADME, cell-based
[34] = tested on: Bacillus subtilis; test: Induction of LiaH.1 protein expression in Bacillus subtilis 168 at 2.3 uM incubated for 15 mins by 35S-methionine pulse labeling based 2D-PAGE analysis; assay type: functional, organism-based
[35] = tested on: Bacillus subtilis; test: Induction of GroEL.3 protein expression in Bacillus subtilis 168 at 2.3 uM incubated for 15 mins by 35S-methionine pulse labeling based 2D-PAGE analysis; assay type: functional, organism-based
[36] = tested on: Bacillus subtilis; test: Induction of LiaH.2 protein expression in Bacillus subtilis 168 at 2.3 uM incubated for 15 mins by 35S-methionine pulse labeling based 2D-PAGE analysis; assay type: functional, organism-based

Structure (SMILES): CC(C)=CCC/C(C)=C/Cc1c(O)ccc(C(=O)/C=C/c2ccc(O)cc2)c1O [XANTHOANGELOL]
- MIC [1]: 6.25 µM (≈ 2.45 µg/mL)
- MIC [2]: 3.12 µM (≈ 1.23 µg/mL)
- MIC50 [2]: 0.96 µM (≈ 0.377 µg/mL)
- MIC90 [2]: 1.33 µM (≈ 0.522 µg/mL)
- MIC [3]: 12.5 µM (≈ 4.91 µg/mL)
- MIC [4]: 6.25 µM (≈ 2.45 µg/mL)
- MIC [5]: 12.5 µM (≈ 4.91 µg/mL)
- MIC [6]: 3.12 µM (≈ 1.23 µg/mL)
- MIC [7]: 3.12 µM (≈ 1.23 µg/mL)
- MIC [8]: > 100 µM
- MIC [9]: > 100 µM
- MIC [10]: > 100 µM
- Activity [11]: Active
- Activity [12]: 100%
- Activity [13]: Active
- Activity [14]: <20 CFU/ml
- IC90 at 48 h [15]: 39.1 µM
- IC50 [16]: 23.6 µM
- IC90 at 48 h [17]: 27.6 µM
- IC50 [18]: 21.7 µM
- IC90 at 48 h [19]: 44.8 µM
- IC50 [20]: 21.5 µM
- IC90 at 48 h [21]: 37.4 µM
- IC50 [22]: 13.7 µM
- IC50 ([23]; Homo sapiens, 48 h): 58.8 µM
- IC90 at 48 h ([23]; human, CLS54 cells): 85.8 µM
- selectivity ratio [24]: 17.7
- selectivity ratio [25]: 16.3
- selectivity ratio [26]: 16.2
- selectivity ratio [27]: 10.3
- selectivity ratio [28]: 44.2
- Activity [29]: Active
- Activity [30]: Active
- Activity [31]: Active
- Activity [32]: Active
- Activity [33]: Toxic
- Activity [34]: Active
- Activity [35]: Active
- Activity [36]: Active
